From ChEMBL document CHEMBL3400149, “Discovery of novel spiro 1,3,4-thiadiazolines as potent, orally bioavailable and brain penetrant KSP inhibitors” (Bioorg Med Chem, 2015)

Key:
[1] = target: T1, Kinesin-like protein KIF11 (Homo sapiens, UniProt P52732); assay: Inhibition of KSP in human HCT116 cells assessed as phos-histone H3 level by immunofluorescent assay; format: cell-based, HCT-116
T1 sequence (P52732 whole entry): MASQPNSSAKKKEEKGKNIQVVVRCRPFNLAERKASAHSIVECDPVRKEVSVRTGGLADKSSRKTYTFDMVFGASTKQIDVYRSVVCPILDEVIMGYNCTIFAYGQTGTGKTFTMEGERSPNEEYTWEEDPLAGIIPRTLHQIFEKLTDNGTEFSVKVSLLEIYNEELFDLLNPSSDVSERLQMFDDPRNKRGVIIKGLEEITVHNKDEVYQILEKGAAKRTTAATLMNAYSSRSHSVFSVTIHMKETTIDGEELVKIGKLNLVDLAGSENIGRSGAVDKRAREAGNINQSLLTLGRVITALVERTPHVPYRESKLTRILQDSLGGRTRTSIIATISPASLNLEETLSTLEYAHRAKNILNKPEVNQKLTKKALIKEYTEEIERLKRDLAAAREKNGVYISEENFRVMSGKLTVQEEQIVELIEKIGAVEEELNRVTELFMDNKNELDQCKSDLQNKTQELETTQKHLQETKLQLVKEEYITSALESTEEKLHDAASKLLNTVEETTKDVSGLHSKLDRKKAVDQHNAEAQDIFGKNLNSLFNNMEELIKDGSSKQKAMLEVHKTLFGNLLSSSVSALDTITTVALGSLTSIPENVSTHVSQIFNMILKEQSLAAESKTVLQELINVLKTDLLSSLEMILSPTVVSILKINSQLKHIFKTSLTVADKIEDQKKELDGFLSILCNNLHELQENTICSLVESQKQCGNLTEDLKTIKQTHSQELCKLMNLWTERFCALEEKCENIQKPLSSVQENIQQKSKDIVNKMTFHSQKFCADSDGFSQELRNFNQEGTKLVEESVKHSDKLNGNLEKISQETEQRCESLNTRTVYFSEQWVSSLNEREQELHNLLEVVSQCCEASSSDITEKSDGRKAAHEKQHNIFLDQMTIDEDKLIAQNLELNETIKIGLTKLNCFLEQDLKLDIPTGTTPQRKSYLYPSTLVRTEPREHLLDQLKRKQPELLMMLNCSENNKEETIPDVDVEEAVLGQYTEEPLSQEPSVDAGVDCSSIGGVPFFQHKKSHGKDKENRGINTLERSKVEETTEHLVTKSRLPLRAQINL

[2] = AUC in CD1 mouse at 5 mg/kg, iv; format: ADME, organism-based; set-up: dose 5 mg/kg, route intravenous; details: plasma
[3] = Cmax in CD1 mouse at 10 mg/kg, po; format: ADME, organism-based; set-up: dose 10 mg/kg, route oral; details: in vivo
[4] = Clearance in CD1 mouse at 5 mg/kg, iv; format: ADME, organism-based; set-up: dose 5 mg/kg, route intravenous; details: in vivo
[5] = Oral bioavailability in CD1 mouse at 10 mg/kg; format: ADME, organism-based; details: in vivo
[6] = AUC in CD1 mouse at 10 mg/kg, po; format: ADME, organism-based; set-up: dose 10 mg/kg, route oral; details: plasma
[7] = AUC in Sprague-Dawley rat at 10 mg/kg, po; format: ADME, organism-based; set-up: dose 10 mg/kg, route oral; details: plasma
[8] = AUC in Sprague-Dawley rat at 1 mg/kg, iv; format: ADME, organism-based; set-up: dose 1 mg/kg, route intravenous; details: plasma
[9] = Oral bioavailability in Sprague-Dawley rat at 10 mg/kg; format: ADME, organism-based; details: in vivo
[10] = Clearance in Sprague-Dawley rat at 1 mg/kg, iv; format: ADME, organism-based; set-up: dose 1 mg/kg, route intravenous; details: in vivo
[11] = Cmax in Sprague-Dawley rat at 10 mg/kg, po; format: ADME, organism-based; set-up: dose 10 mg/kg, route oral; details: in vivo
[12] = Retention time of the compound; format: physicochemical
[13] = Oral bioavailability in Sprague-Dawley rat at 5 mg/kg; format: ADME, organism-based; details: in vivo
[14] = AUC in Sprague-Dawley rat at 5 mg/kg, po; format: ADME, organism-based; set-up: dose 5 mg/kg, route oral; details: plasma
[15] = AUC in beagle dog at 1 mg/kg, iv; format: ADME, organism-based, Canis lupus familiaris; set-up: dose 1 mg/kg, route intravenous; details: plasma
[16] = Cmax in beagle dog at 5 mg/kg, po; format: ADME, organism-based, Canis lupus familiaris; set-up: dose 5 mg/kg, route oral; details: in vivo
[17] = Clearance in beagle dog at 1 mg/kg, iv; format: ADME, organism-based, Canis lupus familiaris; set-up: dose 1 mg/kg, route intravenous; details: in vivo
[18] = Oral bioavailability in beagle dog at 5 mg/kg; format: ADME, organism-based, Canis lupus familiaris; details: in vivo
[19] = Cmax in Sprague-Dawley rat at 5 mg/kg, po; format: ADME, organism-based; set-up: dose 5 mg/kg, route oral; details: in vivo
[20] = AUC in beagle dog at 5 mg/kg, po; format: ADME, organism-based, Canis lupus familiaris; set-up: dose 5 mg/kg, route oral; details: plasma

## CC(=O)N1N=C(c2cc(F)ccc2F)S[C@@]12c1cc(Cl)ccc1OC[C@H]2CCN
[1]
  EC50: 17 nM

## CC(=O)N1N=C(c2cc(F)ccc2F)SC12CCSc1ccccc12 (stereo not given)
[1]
  EC50: 3310 nM

## CC(=O)N1CCC2(SC(c3cc(F)ccc3F)=NN2C(C)=O)c2ccccc21 (stereo not given)
[1]
  EC50: > 1000 nM

## CC(C)C(=O)N1N=C(c2cc(F)ccc2F)SC12CCOc1ccccc12 (stereo not given)
[1]
  EC50: > 500 nM

## CC(=O)N1N=C(c2cc(F)ccc2F)SC12COc1ccccc12 (stereo not given)
[1]
  EC50: 246 nM

## CC(=O)N1N=C(c2cc(F)ccc2F)SC12CCN(C)c1ccccc12 (stereo not given)
[1]
  EC50: > 1000 nM

## CC(=O)N1N=C(c2cc(F)ccc2F)S[C@@]12c1cccc(F)c1OC[C@H]2CCN
[2]
  AUC: 1.5 µM·h
[3]
  Cmax: 430 nM
[4]
  clearance: 136 mL/min/kg
[5]
  bioavailability: 46%
[6]
  AUC: 1.3 µM·h
[1]
  EC50: 5 nM

## CC(C)(C)C(=O)N1N=C(c2cc(F)ccc2F)SC12CCOc1ccccc12 (stereo not given)
[1]
  EC50: > 1000 nM

## CC(=O)N1N=C(c2cc(F)ccc2F)S[C@@]12c1cc(F)ccc1OC[C@H]2CCN
[2]
  AUC: 2.6 µM·h
[3]
  Cmax: 770 nM
[7]
  AUC: 0.15 µM·h
[4]
  clearance: 76 mL/min/kg
[8]
  AUC: 0.37 µM·h
[9]
  bioavailability: 8%
[5]
  bioavailability: 64%
[10]
  clearance: 109 mL/min/kg
[6]
  AUC: 3.3 µM·h
[11]
  Cmax: 17 nM
[1]
  EC50: 1 nM

## CCC(=O)N1N=C(c2cc(F)ccc2F)SC12CCOc1ccccc12 (stereo not given)
[1]
  EC50: 452 nM

## CC(=O)N1N=C(c2cc(F)ccc2F)S[C@@]12c1ccccc1OC[C@@H]2CCN
[12]
  Retention_time: 5.4 min
[1]
  EC50: 11 nM

## CC(=O)N1N=C(c2cc(F)ccc2F)SC12CCNc1ccccc12 (stereo not given)
[1]
  EC50: 179 nM

## O=C(CO)N1N=C(c2cc(F)ccc2F)SC12CCOc1ccccc12 (stereo not given)
[1]
  EC50: 615 nM

## CC(=O)N1N=C(c2cc(F)ccc2F)S[C@@]12c1cc(F)cc(F)c1OC[C@H]2CCN
[13]
  bioavailability: 44%
[2]
  AUC: 6.5 µM·h
[14]
  AUC: 1.7 µM·h
[15]
  AUC: 1.9 µM·h
[3]
  Cmax: 1200 nM
[4]
  clearance: 29 mL/min/kg
[8]
  AUC: 0.8 µM·h
[5]
  bioavailability: 100%
[10]
  clearance: 50 mL/min/kg
[16]
  Cmax: 200 nM
[6]
  AUC: 13.4 µM·h
[17]
  clearance: 20 mL/min/kg
[1]
  EC50: 5 nM
[18]
  bioavailability: 18%
[19]
  Cmax: 180 nM
[20]
  AUC: 1.7 µM·h
